Active and inactive are the calls of the source.
Tests used:
[1] = Luminescence-based cell-based high throughput dose response assay to identify activators of the DAF-12 from the parasite S. stercoralis (ssDAF-12).; format: functional
[2] = molecular target: T1, Oxysterols receptor LXR-beta (Homo sapiens, UniProt P55055); format: functional, cell-based
T1 sequence (P55055 whole entry): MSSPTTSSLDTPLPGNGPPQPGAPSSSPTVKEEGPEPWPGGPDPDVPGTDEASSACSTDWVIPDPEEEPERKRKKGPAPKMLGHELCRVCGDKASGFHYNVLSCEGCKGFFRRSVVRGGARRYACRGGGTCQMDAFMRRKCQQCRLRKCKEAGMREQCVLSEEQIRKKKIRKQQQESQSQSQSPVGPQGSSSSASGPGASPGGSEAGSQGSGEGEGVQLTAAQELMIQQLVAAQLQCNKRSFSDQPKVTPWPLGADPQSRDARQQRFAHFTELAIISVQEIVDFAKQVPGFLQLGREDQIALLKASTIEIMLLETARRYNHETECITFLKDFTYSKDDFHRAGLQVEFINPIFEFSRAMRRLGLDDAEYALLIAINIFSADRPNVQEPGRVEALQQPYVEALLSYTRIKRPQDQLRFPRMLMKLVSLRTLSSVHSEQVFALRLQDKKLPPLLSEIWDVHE

[3] = molecular target: T1, Oxysterols receptor LXR-beta; test: LXR agonists, Gal4 luciferase reporter, dose response, counter-screen for ssDAF-12 agonist project, cell-based, luminescence, HEK293, S. stercoralis campaign (AID 720737); format: functional; conditions: read-out: IC50 (the source's name)
[4] = viability loss in HepG2 hepatoma cells – cell-based, ATP luminescence, cherry-pick, activator set 2, cytotoxicity control, dose response (AID 1053143); format: functional
[5] = molecular target: T2, Endoribonuclease toxin MazF (Escherichia coli K-12, UniProt P0AE70); test: substrate-only fluorescence increase artefacts – biochemical, single-stranded RNase substrate, counter-screen for MazEF activator project, dose response (AID 588502); format: functional
T2 sequence (P0AE70 whole entry): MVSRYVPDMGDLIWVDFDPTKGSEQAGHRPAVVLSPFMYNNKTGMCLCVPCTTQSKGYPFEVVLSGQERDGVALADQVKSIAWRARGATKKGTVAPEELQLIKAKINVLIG

[6] = molecular target: T2, Endoribonuclease toxin MazF; test: activation of MazEF endoribonuclease cleavage – biochemical, fluorescence, single-stranded RNA substrate, uHTS hits, dose response (AID 588481); format: functional
[7] = general cell-killing toxicity readout – plate reader, dry powder samples, cytotoxicity control for PAX8 inhibitor project, dose response (AID 743021); format: functional, cell-based
[8] = OVCAR8 cell viability loss – plate reader, dry powder samples, PAX8 project, dose response (AID 743197); format: functional, cell-based; conditions: OVCAR-8
[9] = molecular target: Paired box protein Pax-8 (Homo sapiens, UniProt Q06710); test: PAX8 transcriptional activity inhibition in RMG-I – RMG-I cells, luciferase, cherry-pick, dose response (AID 687027); format: functional, cell-based;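 also: luciferase reporter driven by Pax8 target thyroperoxidase promoter measured by SteadyGlo luminescence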
[10] = OVCAR-3 cell viability loss – plate reader, dry powder samples, PAX8 inhibitor project, dose response (AID 743044); format: functional, cell-based
[11] = A2780 cell killing – plate reader, dry powder samples, cytotoxicity control, dose response (AID 743046); format: functional, cell-based
[12] = inhibition of ARNT PAS-B/TACC3 complex formation – biochemical, AlphaScreen, cherry-picked samples, confirmation (AID 651703); format: functional, Homo sapiens;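 also: His-tagged ARNT PAS-B domain paired with GST-TACC3 E629A dimer coactivator fragment; potency of inhibitors that break up the complex and lower AlphaScreen signal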
[13] = molecular target: Caspase-6 (Homo sapiens, UniProt P55212); test: inhibition of CASP6 peptide cleavage – biochemical, VEID-R110 fluorescence, cherry-pick, dose response (AID 720632)
[14] = molecular target: Ion channel NompC (Danio rerio, UniProt Q7T1G6); test: Fluorescence counterscreen assay for TRPML3 agonists: dose response cell-based high-throughput screening assay to identify agonists of the transient receptor potential channel N1 (TRPN1). [Related pubchem assays: 1526, 1424, 1448 ]; format: functional
[15] = molecular target: T3, Mucolipin-3 (Homo sapiens, UniProt Q8TDD5); test: Dose response cell-based high-throughput screening assay for agonists of the transient receptor potential channel ML3 (TRPML3). [Related pubchem assays: 1526, 1424, 1448 ]; format: functional
T3 sequence (Q8TDD5 whole entry): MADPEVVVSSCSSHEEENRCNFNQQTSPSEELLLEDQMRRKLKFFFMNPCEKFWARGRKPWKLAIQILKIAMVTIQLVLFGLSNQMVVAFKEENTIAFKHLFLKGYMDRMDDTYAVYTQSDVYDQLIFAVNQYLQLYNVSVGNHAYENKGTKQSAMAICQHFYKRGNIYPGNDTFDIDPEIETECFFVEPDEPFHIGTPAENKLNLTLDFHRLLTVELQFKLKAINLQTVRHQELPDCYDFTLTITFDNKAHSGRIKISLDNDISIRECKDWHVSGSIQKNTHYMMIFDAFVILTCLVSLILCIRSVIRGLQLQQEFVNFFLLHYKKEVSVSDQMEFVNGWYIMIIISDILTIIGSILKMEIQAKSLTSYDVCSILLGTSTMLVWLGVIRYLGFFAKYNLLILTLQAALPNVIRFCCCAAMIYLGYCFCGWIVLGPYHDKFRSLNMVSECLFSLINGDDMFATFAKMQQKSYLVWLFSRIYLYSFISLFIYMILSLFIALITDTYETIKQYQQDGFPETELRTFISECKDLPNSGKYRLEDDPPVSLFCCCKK

[16] = loss of viability in HepG2 cells – cell-based, CellTiter-Glo, cherry-picked, cytotoxicity control for Shn3 inhibitor project, dose response (AID 624134); format: functional
[17] = Shn3 3'UTR reporter signal decrease – cell-based, Clone20 osteoblasts, firefly luciferase, cherry-pick, set 2, Schnurri-3 inhibitor project, dose response (AID 720490); format: functional;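 also: actives lower the luminescence signal as inhibitors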
[18] = reduction of Shn3 3'UTR-driven luciferase in osteoblasts – cell-based, Clone20 osteoblasts, firefly luciferase, cherry-picked, dose response (AID 624132); format: functional;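 also: firefly luciferase luminescence from reporter carrying the Shn3 3'UTR in osteoblasts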
[19] = molecular target: Disintegrin and metalloproteinase domain-containing protein 17 (Homo sapiens, UniProt P78536); test: exosite inhibitors of ADAM17, dose response, biochemical (AID 743260)
[20] = IGROV1 cell killing – plate reader, dry powder samples, PAX8 inhibitor project, dose response (AID 743043); format: functional, cell-based; conditions: IGROV-1
[21] = cells; format: functional, cell-based
[22] = cells; format: functional, cell-based; remark: listed apart in the source
[23] = inhibition of ADAM10 peptide cleavage – biochemical, FRET peptide substrate, recombinant human ADAM10, selectivity assay for ADAM17 exosite inhibitor project, dose response (AID 743259);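 also: ADAM10 enzyme cleaving a FRET peptide substrate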
[24] = molecular target: T1, Oxysterols receptor LXR-beta; format: functional, cell-based; remark: listed apart in the source
[25] = cells
[26] = molecular target: Luciferin 4-monooxygenase (Photinus pyralis, UniProt P08659); test: inhibition of purified Photinus pyralis luciferase – biochemical, luminescence, dose response (AID 1891)
[27] = Luminescence Cell-Based Dose Confirmation HTS to Identify Inhibitors of Platelet Dense Granule Release. [Related pubchem assays: 1663 (Primary HTS), 1678 (Summary of Project)]; format: functional
[28] = molecular target: Endoplasmic reticulum aminopeptidase 1 (Homo sapiens, UniProt Q9NZ08); test: inhibition of human ERAP1 enzyme activity – biochemical, cherry-pick, set 2, plate reader, dose response (AID 743314)
[29] = blockers of bursicon-stimulated LGR2 cAMP reporter – cell-based, HEK293, CRE-luciferase reporter, cherry pick, set 2, dose response (AID 743343); format: functional;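 also: transfected cells were stimulated with diluted bursicon conditioned medium after compound addition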
[30] = toxicity toward HepG2 liver cells – cell-based, plate reader, cherry-pick, antagonist series, cytotoxicity control, dose response (AID 743416); format: functional
[31] = blockade of melanocortin 4 receptor signaling – cell-based, plate reader, cherry pick, counter-screen for LGR2 antagonist project, dose response (AID 743444); format: functional;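 also: transfected HEK 293 cells stimulated with alpha-MSH peptide; potency of inhibitors of the alpha-MSH evoked signal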
[32] = A549 cell cytotoxicity, dose response, cytotoxicity control, plate reader, cherry-pick, antagonist series (AID 743412); format: functional, cell-based

Chain of Paired box protein Pax-8 (Q06710 whole entry): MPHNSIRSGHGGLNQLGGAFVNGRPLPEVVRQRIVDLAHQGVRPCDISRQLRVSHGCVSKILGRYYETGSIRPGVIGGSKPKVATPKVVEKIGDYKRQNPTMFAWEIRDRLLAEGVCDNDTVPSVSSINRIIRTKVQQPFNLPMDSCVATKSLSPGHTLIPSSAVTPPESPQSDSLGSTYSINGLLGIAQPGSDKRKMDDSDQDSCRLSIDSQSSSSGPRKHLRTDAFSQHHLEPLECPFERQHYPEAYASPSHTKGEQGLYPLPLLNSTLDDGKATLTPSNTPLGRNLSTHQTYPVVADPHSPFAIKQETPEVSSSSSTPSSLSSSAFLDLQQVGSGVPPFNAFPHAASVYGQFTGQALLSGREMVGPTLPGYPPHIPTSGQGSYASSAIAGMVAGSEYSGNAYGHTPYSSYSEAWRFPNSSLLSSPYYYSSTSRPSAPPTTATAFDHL
Chain of Disintegrin and metalloproteinase domain-containing protein 17 (P78536 whole entry, the tested form may be a part): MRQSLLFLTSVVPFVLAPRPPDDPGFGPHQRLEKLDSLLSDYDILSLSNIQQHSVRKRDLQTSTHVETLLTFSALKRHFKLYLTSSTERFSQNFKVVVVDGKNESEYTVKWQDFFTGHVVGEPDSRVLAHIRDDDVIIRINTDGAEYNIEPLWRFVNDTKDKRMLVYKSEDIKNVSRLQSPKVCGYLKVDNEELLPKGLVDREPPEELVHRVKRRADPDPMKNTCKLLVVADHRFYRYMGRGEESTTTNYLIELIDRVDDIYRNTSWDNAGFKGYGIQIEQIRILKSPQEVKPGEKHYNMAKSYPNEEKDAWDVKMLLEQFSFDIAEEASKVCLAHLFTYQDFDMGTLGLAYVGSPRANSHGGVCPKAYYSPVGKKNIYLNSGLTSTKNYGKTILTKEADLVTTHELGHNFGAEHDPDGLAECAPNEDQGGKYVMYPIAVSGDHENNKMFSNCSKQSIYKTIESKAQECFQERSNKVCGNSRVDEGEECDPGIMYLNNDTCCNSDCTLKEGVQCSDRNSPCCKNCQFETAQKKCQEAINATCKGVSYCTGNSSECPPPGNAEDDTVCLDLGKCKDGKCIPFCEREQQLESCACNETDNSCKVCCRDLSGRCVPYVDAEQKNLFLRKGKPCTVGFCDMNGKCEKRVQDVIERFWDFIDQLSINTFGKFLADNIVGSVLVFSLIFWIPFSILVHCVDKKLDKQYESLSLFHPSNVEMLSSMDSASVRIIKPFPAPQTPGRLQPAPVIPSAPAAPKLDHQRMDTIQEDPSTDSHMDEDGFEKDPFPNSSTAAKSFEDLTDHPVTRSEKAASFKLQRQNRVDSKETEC
Chain of Luciferin 4-monooxygenase (P08659 whole entry): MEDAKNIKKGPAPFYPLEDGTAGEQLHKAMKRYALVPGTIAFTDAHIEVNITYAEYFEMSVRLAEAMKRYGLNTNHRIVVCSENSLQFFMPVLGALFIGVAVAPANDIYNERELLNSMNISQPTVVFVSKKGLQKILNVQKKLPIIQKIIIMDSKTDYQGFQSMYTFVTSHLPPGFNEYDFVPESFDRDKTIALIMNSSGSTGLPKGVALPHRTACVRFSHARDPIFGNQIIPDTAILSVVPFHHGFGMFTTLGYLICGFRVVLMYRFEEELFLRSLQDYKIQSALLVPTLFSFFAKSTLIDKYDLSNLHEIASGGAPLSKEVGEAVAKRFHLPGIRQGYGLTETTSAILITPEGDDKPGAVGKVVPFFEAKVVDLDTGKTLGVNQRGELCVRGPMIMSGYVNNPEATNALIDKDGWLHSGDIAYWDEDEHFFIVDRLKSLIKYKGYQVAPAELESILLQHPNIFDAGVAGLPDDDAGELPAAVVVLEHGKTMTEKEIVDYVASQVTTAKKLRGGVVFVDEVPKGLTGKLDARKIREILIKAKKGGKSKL
Chain of Endoplasmic reticulum aminopeptidase 1 (Q9NZ08 whole entry): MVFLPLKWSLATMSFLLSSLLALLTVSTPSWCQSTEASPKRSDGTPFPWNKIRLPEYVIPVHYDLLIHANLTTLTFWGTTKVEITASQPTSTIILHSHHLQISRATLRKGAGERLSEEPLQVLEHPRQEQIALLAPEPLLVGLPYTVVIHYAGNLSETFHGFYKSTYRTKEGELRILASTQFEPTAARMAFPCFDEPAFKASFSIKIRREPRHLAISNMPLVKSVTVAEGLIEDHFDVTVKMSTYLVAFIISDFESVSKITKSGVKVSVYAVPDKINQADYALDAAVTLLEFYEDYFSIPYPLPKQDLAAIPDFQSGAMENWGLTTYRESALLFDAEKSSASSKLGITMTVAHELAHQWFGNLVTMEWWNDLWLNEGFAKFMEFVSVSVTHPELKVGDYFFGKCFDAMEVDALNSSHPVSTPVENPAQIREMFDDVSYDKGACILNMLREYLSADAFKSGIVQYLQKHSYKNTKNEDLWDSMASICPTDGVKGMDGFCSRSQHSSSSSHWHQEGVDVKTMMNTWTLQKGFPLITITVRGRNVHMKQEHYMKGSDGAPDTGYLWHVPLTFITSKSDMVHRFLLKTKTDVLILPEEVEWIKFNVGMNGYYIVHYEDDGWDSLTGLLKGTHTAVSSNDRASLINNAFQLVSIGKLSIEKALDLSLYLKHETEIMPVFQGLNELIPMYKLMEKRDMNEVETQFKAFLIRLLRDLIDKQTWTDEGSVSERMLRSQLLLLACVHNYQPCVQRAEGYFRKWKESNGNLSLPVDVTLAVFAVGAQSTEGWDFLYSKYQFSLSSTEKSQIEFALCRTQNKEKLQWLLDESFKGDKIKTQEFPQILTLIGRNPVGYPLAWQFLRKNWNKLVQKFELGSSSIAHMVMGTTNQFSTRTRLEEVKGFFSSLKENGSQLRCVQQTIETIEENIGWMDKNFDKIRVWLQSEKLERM
Chain of Caspase-6 (P55212 24-179 limits assumed): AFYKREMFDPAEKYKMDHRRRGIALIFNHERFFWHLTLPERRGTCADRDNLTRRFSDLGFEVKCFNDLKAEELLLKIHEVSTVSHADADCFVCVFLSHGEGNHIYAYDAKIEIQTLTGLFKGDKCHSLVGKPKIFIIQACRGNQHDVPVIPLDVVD
Chain of Caspase-6 (P55212 194-293 limits assumed): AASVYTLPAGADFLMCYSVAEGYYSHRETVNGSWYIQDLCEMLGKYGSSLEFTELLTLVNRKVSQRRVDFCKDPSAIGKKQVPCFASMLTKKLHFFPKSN
Chain of Ion channel NompC (Q7T1G6 whole entry): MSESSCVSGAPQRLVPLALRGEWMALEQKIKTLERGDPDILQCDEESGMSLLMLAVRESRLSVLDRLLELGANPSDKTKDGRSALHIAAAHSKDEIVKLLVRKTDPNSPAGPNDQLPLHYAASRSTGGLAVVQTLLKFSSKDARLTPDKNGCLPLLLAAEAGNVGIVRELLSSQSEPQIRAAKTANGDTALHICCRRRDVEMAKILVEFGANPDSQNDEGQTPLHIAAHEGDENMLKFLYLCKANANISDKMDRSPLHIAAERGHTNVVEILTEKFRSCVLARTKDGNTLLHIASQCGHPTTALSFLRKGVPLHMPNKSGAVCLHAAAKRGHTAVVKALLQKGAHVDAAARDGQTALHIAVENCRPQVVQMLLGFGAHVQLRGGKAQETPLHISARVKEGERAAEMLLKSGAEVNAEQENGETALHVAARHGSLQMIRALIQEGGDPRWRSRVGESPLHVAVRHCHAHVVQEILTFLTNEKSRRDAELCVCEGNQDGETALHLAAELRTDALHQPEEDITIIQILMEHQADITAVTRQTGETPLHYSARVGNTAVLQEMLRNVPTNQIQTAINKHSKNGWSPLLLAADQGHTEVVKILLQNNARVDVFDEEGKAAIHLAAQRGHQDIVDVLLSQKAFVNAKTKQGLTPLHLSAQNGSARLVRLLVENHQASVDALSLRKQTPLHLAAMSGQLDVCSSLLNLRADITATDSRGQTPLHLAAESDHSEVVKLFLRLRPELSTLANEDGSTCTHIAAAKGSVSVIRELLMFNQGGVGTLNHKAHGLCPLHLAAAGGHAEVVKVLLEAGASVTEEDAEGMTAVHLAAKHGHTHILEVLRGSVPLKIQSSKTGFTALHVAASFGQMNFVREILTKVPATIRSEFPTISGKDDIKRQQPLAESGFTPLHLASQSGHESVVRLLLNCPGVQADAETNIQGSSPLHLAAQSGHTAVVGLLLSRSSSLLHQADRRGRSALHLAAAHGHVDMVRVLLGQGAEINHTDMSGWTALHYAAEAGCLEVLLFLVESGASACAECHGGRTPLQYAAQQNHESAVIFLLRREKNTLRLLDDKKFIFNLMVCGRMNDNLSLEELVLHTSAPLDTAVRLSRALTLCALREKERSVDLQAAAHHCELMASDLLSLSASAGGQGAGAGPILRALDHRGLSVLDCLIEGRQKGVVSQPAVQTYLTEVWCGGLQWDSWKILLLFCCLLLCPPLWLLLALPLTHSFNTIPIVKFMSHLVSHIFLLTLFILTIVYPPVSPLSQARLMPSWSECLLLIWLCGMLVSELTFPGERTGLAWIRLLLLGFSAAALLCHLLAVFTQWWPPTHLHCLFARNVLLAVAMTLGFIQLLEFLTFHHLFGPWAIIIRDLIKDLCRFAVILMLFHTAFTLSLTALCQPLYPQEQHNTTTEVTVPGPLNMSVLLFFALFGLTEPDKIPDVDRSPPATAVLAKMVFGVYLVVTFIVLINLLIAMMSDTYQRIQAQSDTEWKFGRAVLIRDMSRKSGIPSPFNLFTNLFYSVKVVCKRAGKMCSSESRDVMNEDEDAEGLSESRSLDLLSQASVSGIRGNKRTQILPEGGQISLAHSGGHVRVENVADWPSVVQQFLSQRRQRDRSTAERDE

Oc1ccccc1-c1cc(-c2ccc(Cl)cc2)[nH]n1
IC50 [1]: > 67.5 µM (inactive) | EC50 [2]: > 67.5 µM (inactive) | EC50 [3]: > 67.5 µM (inactive)

Nc1c(C(=O)c2ccccc2)sc2nsc(SCCN3CCOCC3)c12
AC50 [4]: 51.6 µM (active) | EC50 [5]: > 99 µM (inactive) | EC50 [6]: > 99 µM (inactive)

COc1ccc(CN(C)C[C@@H]2OCCCC[C@H](C)Oc3ccc(NC(=O)Nc4ccc(C(F)(F)F)cc4)cc3C(=O)N([C@@H](C)CO)C[C@H]2C)cc1
AC50 [7]: 63.1 µM (active) | AC50 [8]: 25.2 µM (active) | AC50 [9]: 14.6 µM (active) | AC50 [10]: 2.91 µM (active) | AC50 [11]: 21.9 µM (active)

CCOC(=O)C1CCN(C(=O)COC(=O)c2ccc([N+](=O)[O-])o2)CC1
AC50 [12]: 88.2 µM (active) | AC50 [13]: 18.5 µM (active)

COc1ccc(NS(=O)(=O)c2ccc(OC)c(N(C)S(=O)(=O)c3ccc(Cl)cc3)c2)cc1
EC50 [14]: > 29.9 µM (not active) | EC50 [15]: > 9.99 µM (not active) | AC50 [16]: 38.7 µM (active) | AC50 [17]: 3.54 µM (active) | AC50 [18]: 2.92 µM (active)

COc1ccc(-c2n[nH]c(=S)n2-c2ccc(Br)cc2)cc1OC
IC50 [19]: 41.6 µM (inactive)

O=C(C1CCC1)N1CC(=O)N2[C@H](CO)[C@H](c3ccc(C#CCc4ccccc4)cc3)[C@H]2C1
AC50 [7]: 48 µM (active) | AC50 [8]: 20.4 µM (active) | AC50 [9]: 24.3 µM (active) | AC50 [10]: 11.4 µM (active) | AC50 [20]: 42.6 µM (active) | AC50 [11]: 0.324 µM (active)

OCc1ccc(N=Nc2ccccc2)cc1
EC50 [21]: > 350 µM (not active) | EC50 [22]: 8.65 µM (active) | EC50 [2]: > 67.5 µM (inactive)

Cc1ccccc1-c1nnn(Cc2ccc(F)cc2Cl)n1
IC50 [19]: > 69.5 µM (inactive) | IC50 [23]: > 69.5 µM (inactive)

Oc1c(N=Nc2ccccc2)sc2ccccc12
EC50 [24]: > 67.5 µM (inactive) | IC50 [1]: > 67.5 µM (inactive) | EC50 [25]: > 67.5 µM (inactive) | EC50 [26]: 1.26 µM (active) | EC50 [3]: > 67.5 µM (inactive) | EC50 [27]: 15 µM (active)

O=c1ccc2cc(OC3O[C@H](CO)[C@@H](O)[C@H](O)[C@H]3O)c(O)cc2o1 (some centres undefined)
AC50 [28]: 2.24 µM (active)

COc1ccc(-c2nnc(S)n2-c2ccc(Br)cc2)cc1OC
IC50 [23]: > 69.5 µM (inactive)

Cc1ccc(Nc2nc(-c3ccccc3)cs2)nc1
AC50 [29]: 8.03 µM (active) | AC50 [30]: > 52 µM (inactive) | EC50 [24]: > 67.5 µM (inactive) | EC50 [25]: > 67.5 µM (inactive) | AC50 [31]: 13.3 µM (active) | AC50 [32]: 37.4 µM (active)

Reference: ChEMBL document CHEMBL1201862, “PubChem BioAssay data set” (2004)
